Results from ChEMBL document CHEMBL4840370, “Irilone, a Red Clover Isoflavone, Combined with Progesterone Enhances PR Signaling through the Estrogen and Glucocorticoid Receptors” (J Nat Prod, 2021).
Activity calls are given as the source filed them. The rule behind the calls is not given here.

Key:
[1] = target: T1, Estrogen receptor (Homo sapiens) (UniProt P03372); test: Induction of estrogen receptor in human T47D cells assessed as increase in HRE-luc activity at 10 uM measured after 24 hrs by HRE-dependent dual luciferase reporter gene assay relative to control; type: cell-based; details: filed as activator
T1 sequence (whole entry): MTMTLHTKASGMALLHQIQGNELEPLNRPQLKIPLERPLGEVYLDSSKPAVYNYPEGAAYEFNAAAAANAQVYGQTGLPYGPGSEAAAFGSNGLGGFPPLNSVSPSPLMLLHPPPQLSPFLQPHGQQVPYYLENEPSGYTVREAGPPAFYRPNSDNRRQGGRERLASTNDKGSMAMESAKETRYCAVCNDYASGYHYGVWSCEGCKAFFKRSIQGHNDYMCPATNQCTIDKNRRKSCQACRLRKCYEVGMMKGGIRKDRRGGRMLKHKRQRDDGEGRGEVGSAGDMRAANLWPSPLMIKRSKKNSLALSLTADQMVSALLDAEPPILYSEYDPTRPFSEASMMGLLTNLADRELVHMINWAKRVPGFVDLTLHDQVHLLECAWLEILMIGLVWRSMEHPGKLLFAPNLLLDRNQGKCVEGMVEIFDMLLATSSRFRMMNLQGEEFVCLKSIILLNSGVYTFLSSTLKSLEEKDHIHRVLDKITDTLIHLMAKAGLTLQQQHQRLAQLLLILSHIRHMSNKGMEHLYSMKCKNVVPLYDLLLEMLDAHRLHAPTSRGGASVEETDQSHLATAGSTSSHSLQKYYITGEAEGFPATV

Ishikawa [2] = test: Induction of HRE/Luc activity in human Ishikawa null cells at 10 uM incubated for 24 hrs by luciferase reporter gene assay; type: functional, cell-based
[3] = target: T1, Estrogen receptor (Homo sapiens); test: Induction of estrogen receptor in human T47D cells assessed as increase in PR-B protein expression at 10 uM incubated for 24 hrs by western blot analysis; type: cell-based; details: filed as activator
OVCAR-5 [4] = test: Repression of dexamethasone-induced HRE/Luc activity in human OVCAR-5 cells at 10 uM incubated for 24 hrs by luciferase reporter gene assay; type: functional
T47D [5] = test: Effect on PR-A phosphorylation at Ser294 residue in human T47D cells at 10 uM incubated for 60 mins by western blot analysis; type: functional, cell-based
[6] = target: T2, Glucocorticoid receptor (Homo sapiens) (UniProt P04150); test: Induction of glucocorticoid receptor in human Ishikawa PR-B cells transfected with scrambled siRNA assessed as potentiation of progesterone signalling by measuring increase in HRE/Luc activity at 10 uM incubated for 24 hrs in presence of progesterone by luciferase reporter gene assay relative to control; type: cell-based; details: filed as activator
T2 sequence (whole entry): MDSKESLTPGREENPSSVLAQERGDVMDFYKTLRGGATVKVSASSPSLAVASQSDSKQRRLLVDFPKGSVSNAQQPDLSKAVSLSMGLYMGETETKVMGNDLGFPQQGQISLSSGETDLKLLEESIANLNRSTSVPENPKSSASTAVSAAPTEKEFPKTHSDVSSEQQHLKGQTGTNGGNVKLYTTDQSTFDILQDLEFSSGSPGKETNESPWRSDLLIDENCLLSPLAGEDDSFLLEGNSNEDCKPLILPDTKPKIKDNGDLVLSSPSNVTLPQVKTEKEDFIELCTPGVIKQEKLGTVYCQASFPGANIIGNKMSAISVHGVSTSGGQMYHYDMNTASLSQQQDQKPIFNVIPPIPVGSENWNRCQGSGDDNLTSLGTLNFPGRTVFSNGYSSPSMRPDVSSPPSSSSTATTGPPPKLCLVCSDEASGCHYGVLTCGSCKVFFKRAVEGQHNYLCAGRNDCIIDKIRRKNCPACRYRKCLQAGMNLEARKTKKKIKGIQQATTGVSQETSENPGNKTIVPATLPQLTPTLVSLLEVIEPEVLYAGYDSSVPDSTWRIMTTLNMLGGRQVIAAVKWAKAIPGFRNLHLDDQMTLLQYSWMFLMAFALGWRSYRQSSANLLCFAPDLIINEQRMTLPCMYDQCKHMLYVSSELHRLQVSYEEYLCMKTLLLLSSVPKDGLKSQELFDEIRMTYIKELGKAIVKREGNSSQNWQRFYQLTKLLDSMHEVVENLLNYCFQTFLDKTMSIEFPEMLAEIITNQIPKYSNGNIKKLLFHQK

[7] = target: T1, Estrogen receptor (Homo sapiens); test: Induction of estrogen receptor in human T47D cells assessed as increase in PR-A protein expression at 10 uM incubated for 24 hrs in presence of SERM, 4-OH-TAM and progesterone by western blot analysis; type: cell-based
Ishikawa [8] = test: Increase in PR-A protein expression in human Ishikawa PR-B cells at 10 uM incubated for 24 hrs in presence of 100 nM progesterone by western blot analysis; type: functional, cell-based
Mus musculus = test: In vivo potentiation of progesterone signalling in ovariectomized CD-1 mouse assessed as increase in FKBP5 expression in reproductive tract at 4 mg/kg, ip administered once a day for 7 days in presence of progesterone and measured on day 7 at 6 hrs post-last dosage by immunohistochemistry; type: functional, organism-based; details: time 7.0 day
[9] = target: T1, Estrogen receptor (Homo sapiens); test: Induction of estrogen receptor in human T47D cells assessed as increase in PR-B protein expression at 10 uM incubated for 24 hrs in presence of progesterone by western blot analysis; type: cell-based
[10] = target: T1, Estrogen receptor (Homo sapiens); test: Induction of estrogen receptor in human T47D cells assessed as increase in PR-B protein expression at 10 uM incubated for 24 hrs in presence of SERM, 4-OH-TAM and progesterone by western blot analysis; type: cell-based
[11] = target: T1, Estrogen receptor (Homo sapiens); test: Induction of estrogen receptor in human T47D cells assessed as increase in PR-A protein expression at 10 uM incubated for 24 hrs by western blot analysis; type: cell-based; details: filed as activator
OVCAR-5 [12] = test: Increase in GR protein expression in human OVCAR-5 cells at 10 uM incubated for 24 hrs by western blot analysis; type: functional, cell-based
[13] = target: T1, Estrogen receptor (Homo sapiens); test: Induction of estrogen receptor in human T47D cells assessed as increase in PR-A protein expression at 10 uM incubated for 24 hrs in presence of SERM, 4-OH-TAM by western blot analysis; type: cell-based
Ishikawa [14] = test: Potentiation of progesterone receptor signalling in human Ishikawa null cells transfected with wild type PR assessed as induction of HRE/uc activity at 10 uM incubated for 24 hrs by luciferase reporter gene assay relative to control; type: functional
[15] = target: T2, Glucocorticoid receptor (Homo sapiens); test: Induction of glucocorticoid receptor in human Ishikawa PR-B cells assessed as increase in HRE-luc activity at 10 uM measured after 24 hrs by HRE-dependent dual luciferase reporter gene assay relative to control; type: cell-based; details: filed as activator
[16] = target: T1, Estrogen receptor (Homo sapiens); test: Induction of estrogen receptor in human T47D cells assessed as potentiation of progesterone transcriptional activity by measuring increase in HRE-Luc activity at 10 uM measured after 24 hrs in presence of 5 nM progesterone by HRE-dependent dual luciferase reporter gene assay; type: cell-based; details: filed as activator
Ishikawa [17] = test: Induction of HRE/Luc activity in human Ishikawa null cells at 10 uM incubated for 24 hrs in presence of progesterone by luciferase reporter gene assay; type: functional, cell-based
Ishikawa [18] = test: Effect on PR-B protein expression in human Ishikawa PR-B cells at 10 uM incubated for 24 hrs by western blot analysis; type: functional, cell-based
[19] = target: T2, Glucocorticoid receptor (Homo sapiens); test: Agonist activity at GR in human OVCAR-5 cells assessed as induction of HRE/Luc activity at 1 to 10 uM incubated for 24 hrs by luciferase reporter gene assay; type: cell-based; details: dose 1-10 µM
[20] = target: T1, Estrogen receptor (Homo sapiens); test: Induction of estrogen receptor in human T47D cells assessed as increase in PR-A protein expression at 10 uM incubated for 24 hrs in presence of progesterone by western blot analysis; type: cell-based
T47D [21] = test: Effect on R5020-induced PR-A phosphorylation at Ser294 residue in human T47D cells at 10 uM incubated for 60 mins by western blot analysis; type: functional, cell-based
Ishikawa [22] = test: Decrease in PR-B protein expression in human Ishikawa PR-B cells at 10 uM incubated for 24 hrs in presence of 100 nM progesterone by western blot analysis; type: functional, cell-based
[23] = target: T2, Glucocorticoid receptor (Homo sapiens); test: Induction of glucocorticoid receptor in human Ishikawa PR-B cells assessed as potentiation of progesterone transcriptional activity by measuring increase in HRE-Luc activity at 10 uM measured after 24 hrs in presence of 5 to 100 nM progesterone by HRE-dependent dual luciferase reporter gene assay; type: cell-based; details: filed as activator
[24] = Induction of epithelial cells proliferation in uterus of ovariectomized CD-1 mouse at 4 mg/kg, ip administered once a day for 7 days and measured on day 7 at 6 hrs post-last dosage by PCNA staining based immunohistochemistry (reference value: 33.3%); type: organism-based; details: in vivo, 168 h, time 7 day
[25] = Induction of HRE/Luc activity in human Ishikawa PR-B cells transfected with GR siRNA at 10 uM incubated for 24 hrs in presence of progesterone by luciferase reporter gene assay relative to control; type: functional
Ishikawa [26] = test: Increase in GR protein expression in human Ishikawa PR-B cells at 10 uM incubated for 24 hrs by western blot analysis; type: functional, cell-based
OVCAR-5 [27] = test: Repression of dexamethasone-induced HRE/Luc activity in human OVCAR-5 cells at 1 to 5 uM incubated for 24 hrs by luciferase reporter gene assay; type: functional, cell-based; details: dose 1-5 µM
Ishikawa [28] = test: Increase in PR-B protein expression in human Ishikawa PR-B cells at 10 uM incubated for 24 hrs in presence of 100 nM progesterone by western blot analysis; type: functional, cell-based
Ishikawa [29] = test: Decrease in PR-A protein expression in human Ishikawa PR-B cells at 10 uM incubated for 24 hrs in presence of 100 nM progesterone by western blot analysis; type: functional, cell-based
T47D [30] = test: Effect on PR-B phosphorylation at Ser294 residue in human T47D cells at 10 uM incubated for 60 mins by western blot analysis; type: functional, cell-based
[31] = Induction of epithelial cells proliferation in uterus of ovariectomized CD-1 mouse at 4 mg/kg, ip administered once a day for 7 days in presence of progesterone and measured on day 7 at 6 hrs post-last dosage by PCNA staining based immunohistochemistry (reference value: 7%); type: organism-based; details: in vivo, 168 h, time 7 day
[32] = target: T1, Estrogen receptor (Homo sapiens); test: Induction of estrogen receptor in human T47D cells assessed as increase in PR-B protein expression at 10 uM incubated for 24 hrs in presence of SERM, 4-OH-TAM by western blot analysis; type: cell-based
Ishikawa [33] = test: Potentiation of progesterone signalling in human Ishikawa null cells transfected with wild type PR assessed as induction of HRE/uc activity at 10 uM incubated for 24 hrs in presence of progesterone by luciferase reporter gene assay relative to control; type: functional
[34] = target: T1, Estrogen receptor (Homo sapiens); test: Induction of estrogen receptor in human T47D cells assessed as increase in ERE/Luc activity at 10 uM measured after 24 hrs by luciferase reporter gene assay relative to control; type: cell-based; details: filed as activator
Ishikawa [35] = test: Effect on PR-A protein expression in human Ishikawa PR-B cells at 10 uM incubated for 24 hrs by western blot analysis; type: functional, cell-based
T47D [36] = test: Effect on R5020-induced PR-B phosphorylation at Ser294 residue in human T47D cells at 10 uM incubated for 60 mins by western blot analysis; type: functional, cell-based

With O=c1c(-c2ccc(O)cc2)coc2cc3c(c(O)c12)OCO3 the fold change (FC) [1] was 1.07, the Activity (Ishikawa [2]) was “inactive” and the Activity [3] was “Active”. The inhibition at 10 µM (OVCAR-5 [4]) was 22%, the Activity (T47D [5]) was “inactive” and the fold change (FC) [6] was 44. The Activity [7] was “inactive”, the Activity (Ishikawa [8]) was “inactive” and the Activity (Mus musculus) was “inactive”. The Activity [9] was “inactive”, the Activity [10] was “inactive” and the Activity [11] was “Active”. The Activity (OVCAR-5 [12]) was “inactive”, the Activity [13] was “inactive” and the “fold change (FC)” value (Ishikawa [14]) was 5.8. For the same compound, the fold change (FC) [15] was 1.2, the Activity [16] was “Active” and the Activity (Ishikawa [17]) was “inactive”. For the same compound, the Activity (Ishikawa [18]) was “inactive”, the Activity [19] was “inactive” and the Activity [20] was “inactive”. For the same compound, the Activity (T47D [21]) was “inactive”, the inhibition (Ishikawa [22]) was “inactive” and the Activity [23] was “Active”. For the same compound, the Activity [24] was 18.4%, the “fold change (FC)” value [25] was 30 and the Activity (Ishikawa [26]) was “Active”. For the same compound, the inhibition (OVCAR-5 [27]) was “inactive”, the Activity (Ishikawa [28]) was “inactive” and the inhibition (Ishikawa [29]) was “inactive”. For the same compound, the Activity (T47D [30]) was “inactive”, the Activity [31] was 0.93% and the Activity [32] was “inactive”. For the same compound, the “fold change (FC)” value (Ishikawa [33]) was 38, the fold change (FC) [34] was 4 and the Activity (Ishikawa [35]) was “inactive”. The Activity (T47D [36]) was “inactive”.
